From patent US8697385B1, “Protein controlling synthesis of collagen and associated methods” (Florida State University Research Foundation, Inc., priority 2009, dated 2014)

Experiments:
Format in all cases: cell-based, human
vimentin = assay: Immunoprecipitation of vimentin and RT-PCR of collagen mRNAs; conditions: lung fibroblasts; puromycin (dissociation of polysomes) vs cycloheximide
Procedure: (§1) ML-7, blebbistatin, cytochalasin B, puromycin, and cycloheximide were purchased from Sigma. ML-7 was used at 40 μM, blebbistatin was used at 100 μM, and cytochalasin B was used at 20 μM. Cells were incubated with the drugs for 16 h before analysis. Puromycin (200 μg/ml) and cycloheximide (100 μg/ml) were added to the cells for 2 h. Human lung fibroblasts have been described previously.16 Scleroderma fibroblasts were purchased from the European Collection of Cell Cultures (cell line BM0070) and derived from the skin of a scleroderma patient. MEFs were derived from knock-in mice in which the 5′SL of the collagen α1(I) gene has been mutated (Parsons et al., submitted). […] [^32P]dCTP was included in the PCR step to label the products, which were resolved on sequencing gels, as described previously.^8,31,49,50 When RNA from polysomal fractions was analyzed, an equal aliquot of each fraction was used. […]
(§2) One of the roles of nonmuscle myosin filaments may be to present collagen mRNAs to ribosomes. Therefore, we assessed if the association of collagen mRNAs with nonmuscle myosin is dependent on intact polysomes. […] We then immunoprecipitated nonmuscle myosin from lung fibroblasts treated with cycloheximide or puromycin and analyzed if this can change the pull-down of collagen mRNAs. As control, the association with vimentin was analyzed in the same samples (FIG. 9b). […]

nonmuscle myosin IIB = assay: Immunoprecipitation of nonmuscle myosin IIB and RT-PCR of collagen mRNAs; conditions: lung fibroblasts; cycloheximide 100 μg/ml or puromycin 200 μg/ml, 2 h
Procedure: as §1, §2

myosin IIB = assay: Western blot analysis of total nonmuscle myosin IIB level; conditions: lung fibroblasts; puromycin 200 μg/ml 2 h vs cycloheximide-treated cells
Procedure: as §1, with “submitted). Several independent cell isolates were used throughout the study. All cells were cultured in Dulbecco's modified Eagle's medium supplemented with 10% fetal bovine serum for up to 10 passages.” for “submitted).”
Protein concentration was estimated by the Bradford assay, with bovine serum albumin as standard.^51 Western blot analyses of cellular proteins were performed using 50 μg of protein. […] The medium was collected, and an aliquot was analyzed directly by Western blot analysis. […]

LARP6 and vimentin = assay: Coimmunoprecipitation of vimentin with HA-tagged LARP6; conditions: lung fibroblasts; puromycin 200 μg/ml 2 h vs cycloheximide
Procedure: as §1, §2

[1] = test system: LARP6 and nonmuscle myosin; assay: Coimmunoprecipitation of nonmuscle myosin IIB with HA-tagged LARP6; conditions: lung fibroblasts; puromycin 200 μg/ml 2 h vs cycloheximide
Procedure: as §1, with “submitted). Several independent cell isolates were used throughout the study. All cells were cultured in Dulbecco's modified Eagle's medium supplemented with 10% fetal bovine serum for up to 10 passages. Plasmid constructs and adenovirus preparation.” for “submitted).”
One of the roles of nonmuscle myosin filaments may be to present collagen mRNAs to ribosomes. Therefore, we assessed if the association of collagen mRNAs with nonmuscle myosin is dependent on intact polysomes. […]

polysomes = assay: Fractionation of polysomes on sucrose gradients; conditions: 15-45% sucrose gradient, Western blot; puromycin or ML-7 treatment
Procedure: ML-7, blebbistatin, cytochalasin B, puromycin, and cycloheximide were purchased from Sigma. ML-7 was used at 40 μM, blebbistatin was used at 100 μM, and cytochalasin B was used at 20 μM. Cells were incubated with the drugs for 16 h before analysis. Puromycin (200 μg/ml) and cycloheximide (100 μg/ml) were added to the cells for 2 h. Human lung fibroblasts have been described previously.16 Scleroderma fibroblasts were purchased from the European Collection of Cell Cultures (cell line BM0070) and derived from the skin of a scleroderma patient. MEFs were derived from knock-in mice in which the 5′SL of the collagen α1(I) gene has been mutated (Parsons et al., submitted). Several independent cell isolates were used throughout the study. All cells were cultured in Dulbecco's modified Eagle's medium supplemented with 10% fetal bovine serum for up to 10 passages. Plasmid constructs and adenovirus preparation. The HA-tagged LARP6 clone and the deletion mutants have been described previously.^16 Adenoviruses were constructed by recloning of the constructs into the pAdCMVTRACK vector, followed by recombination with the pAdEasy vector and amplification, as described previously.^48 Expression of each construct was verified by Western blot analysis. The viruses made express both the full-size test protein and the green fluorescent protein (GFP), which is encoded by an independent transcription unit.^48 Expression of GFP served as control for viral transduction. RT-PCR analysis Total cellular RNA was isolated using an RNA isolation kit (Sigma). RT-PCRs were performed with 100 ng of total RNA or using rTth reverse transcriptase (Boca Scientific, Boca Raton, Fla.). [^32P]dCTP was included in the PCR step to label the products, which were resolved on sequencing gels, as described previously.^8,31,49,50 When RNA from polysomal fractions was analyzed, an equal aliquot of each fraction was used. The number of cycles was adjusted to within the linear range of the reaction. The primers used for RT-PCR were as follows: h-collagen α1(I), 5′ primer […] (SEQ ID NO:3) and 3′ primer […] (SEQ ID NO:4); h-collagen α2(I), 5′ primer […] (SEQ ID NO:5) and 3′ primer […] (SEQ ID NO:6).
Polysomes were fractionated as described previously.^16 Sucrose fractions (0.5 ml) were collected, and total RNA was extracted by phenol/chloroform and isopropanol precipitation. Equivalent amounts of each fraction were analyzed by RT-PCR. Total proteins were extracted from sucrose fractions by trichloroacetic acid precipitation, and equivalent amounts were analyzed by Western blot analysis.
One of the roles of nonmuscle myosin filaments may be to present collagen mRNAs to ribosomes. Therefore, we assessed if the association of collagen mRNAs with nonmuscle myosin is dependent on intact polysomes. […] Only the anti-myosin antibody immunoprecipitated collagen α1(I) and α2(I) mRNAs (lane 1). We then immunoprecipitated nonmuscle myosin from lung fibroblasts treated with cycloheximide or puromycin and analyzed if this can change the pull-down of collagen mRNAs. As control, the association with vimentin was analyzed in the same samples (FIG. 9b). […] The association of collagen mRNAs with vimentin increased after the dissociation of polysomes (lanes 3 and 4). […] To assess if nonmuscle myosin copurifies with polysomes, we fractionated polysomes on sucrose gradients^16 and analyzed for the presence of nonmuscle myosin in the fractions using Western blot analysis (FIG. 9f). […]

`COc1ccc(C[C@H](N)C(=O)N[C@H]2[C@@H](O)[C@H](n3cnc4c(N(C)C)ncnc43)O[C@@H]2CO)cc1` [puromycin] was tested, and the “association of collagen mRNAs with vimentin” value (vimentin) was “increased”, the “collagen α1(I) and α2(I) mRNAs pulled down with nonmuscle myosin IIB” value (nonmuscle myosin IIB) was “the great majority of these mRNAs were absent” and the “total level of nonmuscle myosin” value (myosin IIB) was “did not change”. For the same molecule, the “interaction of LARP6 with vimentin” value (LARP6 and vimentin) was “increased”, the “interaction of LARP6 and nonmuscle myosin” value [1] was “decreased” and the “nonmuscle myosin in polysomal fractions” value (polysomes) was “some nonmuscle myosin was lost, mostly from fractions 1-10”.
